{
  "source": "patent US6630473B1",
  "about": "“Anti-inflammatory agents and inhibitors against increase in ocular tension caused by irradiation with lasers, containing 1,4-dihydropyridine derivatives” (Senju Pharmaceutical Co., Ltd., priority 1999, dated 2003)",
  "key": {"[1]": {"tested_on": "prostaglandin E2 (PGE2) induced inflammatory responses in the anterior uveal tissues and rise of intraocular pressure", "details": "systemic administration before administration of PGE2; cited from earlier work"}, "[2]": {"tested_on": "intraocular inflammation induced by photocoagulation of iris due to argon laser irradiation", "test": "Anterior chamber protein concentration (laser flare cell meter) after argon laser irradiation of iris", "assay_type": "in vivo, Male Dutch colored house rabbits", "details": "for protein concentration after laser irradiation, Treated eye / protein concentration after laser irradiation, Non-treated eye: mean ± SE (n = 4); for protein concentration after laser irradiation: intravenous 500 μg/500 μl/kg at 30 minutes and immediately before laser irradiation, mean ± standard error (n = 4)", "source_text": "(§1) The effect of the inventive compound on intraocular inflammation and rise of intraocular pressure induced by photocoagulation of iris due to argon laser irradiation was examined. As regards intraocular inflammation, the anterior chamber protein concentration (photon/msec) was used as an index. Male Dutch colored house rabbits weighing about 2 kg purchased from Fukusaki Rabbit Breeding Cooperative were used for the test, after confirmation of absence of abnormality. The rabbits were raised at temperature of 23±3° C., humidity of 55±10% on a solid feed (the NOSAN GROUP: Labo R Stock, NIHON NOSAN) 100 g a day, allowing free access to tap water. […] The argon laser was irradiated in the middle of both eyes between limbus and the base of iris at 5 sites at the same intervals, under the conditions of size: 200 μm, irradiation time (duration): 0.5 sec, output (power): 0.35 W. To remove the effect of fibrin that occurs after laser irradiation, heparin (1000 U/kg) was intravenously administered. The increase in the anterior chamber protein concentration caused by ophthalmic inflammation was measured with a laser flare cell meter (Kowa Co., Ltd.) immediately before, 30 minutes after and 1 hour after laser irradiation. Nicardipine hydrochloride was intravenously administered at 30 minutes and immediately before laser irradiation by 500 μg/500 μl/kg. Heparin was administered 5 minutes after the first administration of nicardipine hydrochloride. Heparin was administered to the control group at 30 minutes before laser irradiation. Into one eye of the house rabbits was instilled 0.05% and 0.1% iganidipine hydrochloride and 0.1% nicardipine hydrochloride, and into each opposite eye was instilled physiological saline by 10 μl at 30 minutes before laser irradiation. The eye instilled with the test material was taken as the treated eye, and the opposite eye instilled with physiological saline was taken as the non-treated eye. In view of the influence of the test material on the opposite eye, the control eyes were prepared, wherein physiological saline was instilled into one eye, and the other eye was not treated, respectively taken as the control of the treated eye and the control of the non-treated eye. Heparin was intravenously administered immediately after instillation of the test material and physiological saline."}, "[3]": {"tested_on": "rise of intraocular pressure induced by photocoagulation of iris due to argon laser irradiation", "test": "Intraocular pressure (pneumatonograph) after argon laser irradiation of iris", "assay_type": "in vivo, Male Dutch colored house rabbits", "source_text": "as §1, with “intraocular pressure of” for “increase in”, “both eyes” for “anterior chamber protein concentration caused by ophthalmic inflammation”, “measured” for “measured with a laser flare cell meter (Kowa Co., Ltd.)”, “before” for “before, 30 minutes after”, “0.25, 0.5, 1, 2, 3 and 4 hours” for “1 hour”"}, "[4]": {"tested_on": "experimental endophthalmitis induced by photocoagulation of iris by the argon laser", "details": "literature report; nicardipine by intravenous administration; cited from earlier work"}},
  "note": "Where “and” joins values, the source holds several entries; their conditions need not be identical. Equal values may be shown once. Where a name gives a salt, the structure may show the parent alone.",
  "data": [
    {"smiles": "COC(=O)C1=C(C#N)NC(C)=C(C(=O)OC(C)C)C1c1cccc([N+](=O)[O-])c1", "note": "(stereo not drawn) [nilvadipine]", "values": [
      {"measurement": "effect on PGE2-induced inflammatory responses and temporary rise of intraocular pressure", "setting": "[1]", "result": "inhibits these responses in a dose-dependent manner"}
    ]},
    {"smiles": "COC(=O)C1=C(C)NC(C)=C(C(=O)OCCN(C)Cc2ccccc2)C1c1cccc([N+](=O)[O-])c1", "note": "(stereo not drawn) [nicardipine hydrochloride]", "values": [
      {"measurement": "anterior chamber protein concentration compared with control group", "setting": "[2]; eye instilled with 0.1%, 30 minutes after laser irradiation", "result": "without difference from the control group"},
      {"measurement": "protein concentration after laser irradiation, Treated eye", "setting": "[2]; instillation of 0.1% nicardipine hydrochloride 10 μl 30 minutes before laser, time 0 min", "result": "20.55 ± 5.02 /msec"},
      {"measurement": "protein concentration after laser irradiation, Treated eye", "setting": "[2]; instillation of 0.1% nicardipine hydrochloride 10 μl 30 minutes before laser, time 30 min, hydrochloride", "result": "184.1 /msec and 184.05 ± 35.1 /msec"},
      {"measurement": "protein concentration after laser irradiation, Treated eye", "setting": "[2]; instillation of 0.1% nicardipine hydrochloride 10 μl 30 minutes before laser, time 60 min", "result": "337.23 ± 46.4 /msec"},
      {"measurement": "protein concentration after laser irradiation", "setting": "[2]; time 0 min", "result": "15.53 ± 0.14 /msec"},
      {"measurement": "protein concentration after laser irradiation", "setting": "[2]; time 30 min, hydrochloride", "result": "58.1 /msec and 58.08 ± 18.14 /msec"},
      {"measurement": "protein concentration after laser irradiation", "setting": "[2]; time 60 min", "result": "30.85 ± 2.58 /msec"},
      {"measurement": "protein concentration after laser irradiation, Non-treated eye", "setting": "[2]; opposite eye (physiological saline) from eye instilled with 0.1% nicardipine hydrochloride, time 0 min", "result": "11.73 ± 2.97 /msec"},
      {"measurement": "protein concentration after laser irradiation, Non-treated eye", "setting": "[2]; opposite eye (physiological saline) from eye instilled with 0.1% nicardipine hydrochloride, time 30 min", "result": "118.93 ± 21.21 /msec"},
      {"measurement": "protein concentration after laser irradiation, Non-treated eye", "setting": "[2]; opposite eye (physiological saline) from eye instilled with 0.1% nicardipine hydrochloride, time 60 min", "result": "349.85 ± 23.02 /msec"},
      {"measurement": "effect on the rise of intraocular pressure after laser irradiation", "setting": "[3]; eye instilled with 0.1% (FIG. 4)", "result": "significant inhibition of the rise of intraocular pressure"},
      {"measurement": "intraocular pressure", "setting": "[3]; intravenous administration group, 30 minutes after the irradiation (FIG. 1)", "result": 24.2, "unit": "mmHg"},
      {"measurement": "intraocular pressure", "setting": "[3]; intravenous administration group, 1 hour after the irradiation (FIG. 1)", "result": 20.8, "unit": "mmHg"},
      {"measurement": "time until which the intraocular pressure effect was sustained", "setting": "[3]; intravenous administration group, after the irradiation", "result": 4, "unit": "h"},
      {"measurement": "decrease of intraocular pressure", "setting": "[3]; intravenous administration group, at 1 hour after the irradiation versus immediately before laser irradiation", "result": 9.3, "unit": "mmHg"},
      {"measurement": "intraocular pressure", "setting": "[3]; intravenous administration group, immediately before laser irradiation (FIG. 1)", "result": 30.1, "unit": "mmHg"},
      {"measurement": "effect on PGE2-induced inflammatory responses and temporary rise of intraocular pressure", "setting": "[1]", "result": "inhibits these responses in a dose-dependent manner"},
      {"measurement": "effect on experimental endophthalmitis induced by argon laser photocoagulation of iris", "setting": "[4]", "result": "inhibited experimental endophthalmitis"}
    ]},
    {"smiles": "C=CCN1CCN(CC(C)(C)COC(=O)C2=C(C)NC(C)=C(C(=O)OC)C2c2cccc([N+](=O)[O-])c2)CC1.Cl.Cl", "note": "(stereo not drawn) [iganidipine hydrochloride, 3-(4-allyl-1-piperazinyl)-2,2-dimethylpropyl methyl 2,6-dimethyl-4-(m-nitrophenyl)-1,4-dihydropyridine-3,5-dicarboxylate dihydrochloride]", "values": [
      {"measurement": "protein concentration after laser irradiation, Treated eye", "setting": "[2]; instillation of 0.05% iganidipine hydrochloride 10 μl 30 minutes before laser, time 0 min", "result": "20.55 ± 5.02 /msec"},
      {"measurement": "protein concentration after laser irradiation, Treated eye", "setting": "[2]; instillation of 0.05% iganidipine hydrochloride 10 μl 30 minutes before laser, time 30 min, dihydrochloride", "result": "73.8 /msec and 73.75 ± 8.67 /msec"},
      {"measurement": "protein concentration after laser irradiation, Treated eye", "setting": "[2]; instillation of 0.05% iganidipine hydrochloride 10 μl 30 minutes before laser, time 60 min", "result": "284.10 ± 17.03 /msec"},
      {"measurement": "protein concentration after laser irradiation, Treated eye", "setting": "[2]; instillation of 0.1% iganidipine hydrochloride 10 μl 30 minutes before laser, time 0 min", "result": "19.18 ± 2.37 /msec"},
      {"measurement": "protein concentration after laser irradiation, Treated eye", "setting": "[2]; instillation of 0.1% iganidipine hydrochloride 10 μl 30 minutes before laser, time 30 min, dihydrochloride", "result": "84.7 /msec and 84.70 ± 29.66 /msec"},
      {"measurement": "protein concentration after laser irradiation, Treated eye", "setting": "[2]; instillation of 0.1% iganidipine hydrochloride 10 μl 30 minutes before laser, time 60 min", "result": "227.18 ± 10.03 /msec"},
      {"measurement": "protein concentration after laser irradiation, Non-treated eye", "setting": "[2]; opposite eye (physiological saline) from eye instilled with 0.05% iganidipine hydrochloride, time 0 min", "result": "11.73 ± 2.97 /msec"},
      {"measurement": "protein concentration after laser irradiation, Non-treated eye", "setting": "[2]; opposite eye (physiological saline) from eye instilled with 0.05% iganidipine hydrochloride, time 30 min", "result": "68.53 ± 14.40 /msec"},
      {"measurement": "protein concentration after laser irradiation, Non-treated eye", "setting": "[2]; opposite eye (physiological saline) from eye instilled with 0.05% iganidipine hydrochloride, time 60 min", "result": "313.13 ± 27.06 /msec"},
      {"measurement": "protein concentration after laser irradiation, Non-treated eye", "setting": "[2]; opposite eye (physiological saline) from eye instilled with 0.1% iganidipine hydrochloride, time 0 min", "result": "16.03 ± 2.97 /msec"},
      {"measurement": "protein concentration after laser irradiation, Non-treated eye", "setting": "[2]; opposite eye (physiological saline) from eye instilled with 0.1% iganidipine hydrochloride, time 30 min", "result": "117.33 ± 31.50 /msec"},
      {"measurement": "protein concentration after laser irradiation, Non-treated eye", "setting": "[2]; opposite eye (physiological saline) from eye instilled with 0.1% iganidipine hydrochloride, time 60 min", "result": "244.45 ± 39.46 /msec"},
      {"measurement": "time to restore to the original intraocular pressure", "setting": "[3]; eye instilled with 0.05%", "result": 90, "unit": "min"},
      {"measurement": "rise of intraocular pressure from the initial value", "setting": "[3]; eye instilled with 0.05%, 30 minutes from laser irradiation (FIG. 3)", "result": 6, "unit": "mmHg"},
      {"measurement": "time to restore to the original intraocular pressure", "setting": "[3]; eye instilled with 0.1%", "result": 120, "unit": "min"},
      {"measurement": "rise of intraocular pressure from the initial value", "setting": "[3]; eye instilled with 0.1%, 30 minutes from laser irradiation (FIG. 2)", "result": 7.5, "unit": "mmHg"},
      {"measurement": "intraocular pressure of opposite (non-treated) eye compared with control group", "setting": "[3]; eye instilled with physiological saline opposite to the test-material eye, 3 hours after irradiation", "result": "more significant decrease"}
    ]}
  ]
}
